# Measured values taken from patent US20060069132A1, “Azolecarboxamide herbicides” (priority 2004, published 2006).
# Legend:
# Surinam grass = assay: Test C pre-/postemergence herbicide test; assay type: in vivo, Urochloa decumbens; settings: for Surinam Grass plant response rating: 500 g ai/ha
# Method in brief: (§1)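 Emerged plants at the 1- to 4-leaf stage (2–18 cm), or freshly planted seeds, received test chemicals in a non-phytotoxic solvent mixture with surfactant. Response was visually scored against controls after 12 to 14 days in the greenhouse, on a 0 (no effect) to 100 (complete control) scale.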
# pigweed = assay: Test C pre-/postemergence herbicide test; assay type: in vivo, Amaranthus retroflexus; settings: for Pigweed plant response rating: 500 g ai/ha
# Method in brief: as §1
# corn = assay: Test B pre-/postemergence herbicide test; assay type: in vivo, Zea mays; settings: for Corn plant response rating: postemergence, visual rating
# Method in brief: (§2)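 Herbicidal effect was judged by eye on a 0–100 scale after plants stood 13 to 15 days in the greenhouse following pre- or postemergence treatment with surfactant-containing formulations.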
# eastern black nightshade = assay: Test C pre-/postemergence herbicide test; assay type: in vivo, Solanum ptycanthum; settings: for Plant response rating (0 = no effect, 100 = complete control), Nightshade: 62 g ai/ha; for Plant response rating (0 = no effect, 100 = complete control), Nightshade / Plant response rating, Nightshade: preemergence
# Method in brief: as §1
# velvetleaf [1] = assay: Test C pre-/postemergence herbicide test; assay type: in vivo, Abutilon theophrasti; settings: for Velvetleaf plant response rating: 500 g ai/ha
# Method in brief: as §1
# velvetleaf [2] = assay: Test A pre-/postemergence herbicide test; assay type: in vivo, Abutilon theophrasti
# Method in brief: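 Both application timings were run together: directed soil spray over freshly planted seeds in sandy loam, and runoff spray onto 2–10 cm seedlings. Evaluation after ~10 days in greenhouse used a 0–100 visual scale versus untreated controls.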
# large crabgrass = assay: Test B pre-/postemergence herbicide test; assay type: in vivo, Digitaria sanguinalis; settings: for Crabgrass, Large plant response rating: postemergence, visual rating
# Method in brief: as §2
# cocklebur = assay: Test C pre-/postemergence herbicide test; assay type: in vivo, Xanthium strumarium; settings: for Cocklebur plant response rating: 500 g ai/ha
# Method in brief: as §1
# soybean = assay: Test C pre-/postemergence herbicide test; assay type: in vivo, Glycine max; settings: for Soybean plant response rating: 500 g ai/ha
# Method in brief: as §1
# [3] = 125 g ai/ha, scale 0 (no effect) to 100 (complete control), visual, 12 to 14 days, preemergence
# [4] = Postemergence, 250 g ai/ha, scale 0 to 100, 0 no effect, 100 complete control
# [5] = Preemergence, scale 0 to 100, 0 no effect, 100 complete control
# [6] = postemergence, 125 g ai/ha, scale 0 to 100
# [7] = postemergence, 62 g ai/ha, scale 0 to 100
# [8] = 500 g ai/ha, visual rating 0-100, 0 no effect, 100 complete control, preemergence
# [9] = Postemergence, 500 g ai/ha, visual rating after 13 to 15 days, scale 0 (no effect) to 100 (complete control)
# [10] = 125 g ai/ha, scale 0 (no effect) to 100 (complete control)
# [11] = preemergence, 125 g ai/ha, 0 to 100 scale, 0 is no effect, 100 is complete control
# [12] = 125 g ai/ha, scale 0 (no effect) to 100 (complete control), visual, 12 to 14 days
# [13] = 31 g ai/ha, preemergence, scale 0 to 100
compound,measurement,setting,value
CCn1nc(C(C)(C)C)cc1C(=O)Nc1cccc(C(C)=NO)c1 [Compound 108],"Plant response rating (0 = no effect, 100 = complete control), Surinam Grass","Surinam grass; 62 g ai/ha, preemergence",30
same,"Plant response rating, Surinam Grass",Surinam grass; [3],40
same,Surinam Grass plant response rating,"Surinam grass; Postemergence, scale 0 to 100",50
same,"Plant response rating, Surinam Grass",Surinam grass; [4],40
same,Surinam Grass plant response rating,Surinam grass; [5],90
same,"Plant response rating, Surinam Grass",Surinam grass; [6],40
same,"Plant response rating, Surinam Grass",Surinam grass; [7],20
same,"Plant response rating (0 = no effect, 100 = complete control), Pigweed","pigweed; 62 g ai/ha, preemergence",100
same,"Plant response rating, Pigweed",pigweed; [3],100
same,Pigweed plant response rating,"pigweed; Postemergence, scale 0 to 100",100
same,"Plant response rating, Pigweed",pigweed; [4],100
same,Pigweed plant response rating,pigweed; [5],100
same,"Plant response rating, Pigweed",pigweed; [6],100
same,"Plant response rating, Pigweed",pigweed; [7],60
same,"Plant response rating, Corn",corn; [8],30
same,"Plant response rating, Corn",corn; [9],20
same,Corn plant response rating,corn; [10],10
same,"Plant response rating, Corn",corn; [11],10
same,"Plant response rating (0 = no effect, 100 = complete control), Nightshade",eastern black nightshade,100
same,"Plant response rating, Nightshade",eastern black nightshade; [12],100
same,Nightshade plant response rating,"eastern black nightshade; Preemergence, 500 g ai/ha, scale 0 to 100, 0 no effect, 100 complete control",100
same,"Plant response rating, Velvetleaf",velvetleaf [1]; [3],90
same,Velvetleaf plant response rating,"velvetleaf [1]; Postemergence, scale 0 to 100",90
same,"Plant response rating, Velvetleaf",velvetleaf [1]; [4],80
same,Velvetleaf plant response rating,velvetleaf [1]; [5],100
same,"Plant response rating, Velvetleaf",velvetleaf [1]; [6],60
same,"Plant response rating, Velvetleaf",velvetleaf [1]; [7],40
same,Velvetleaf plant response rating,"velvetleaf [2]; Postemergence, 500 g ai/ha, 0 to 100 scale, 0 no effect, 100 complete control",90
same,"Plant response rating, Velvetleaf","velvetleaf [2]; Postemergence, 2000 g ai/ha, 0 to 100 scale, 0 no effect, 100 complete control",100
same,Velvetleaf plant response rating,"velvetleaf [2]; Preemergence, 500 g ai/ha, visual rating, 0 to 100 scale (0 no effect, 100 complete control)",55
same,Velvetleaf plant response rating,"velvetleaf [2]; Preemergence, 2000 g ai/ha, visual rating, 0 to 100 scale (0 no effect, 100 complete control)",90
same,"Plant response rating, Crabgrass, Large",large crabgrass; [8],100
same,"Plant response rating, Crabgrass, Large",large crabgrass; [9],70
same,"Crabgrass, Large plant response rating",large crabgrass; [10],20
same,"Plant response rating, Crabgrass, Large",large crabgrass; [11],100
same,"Plant response rating (0 = no effect, 100 = complete control), Cocklebur","cocklebur; 62 g ai/ha, preemergence",20
same,"Plant response rating, Cocklebur",cocklebur; [3],30
same,"Plant response rating, Cocklebur","cocklebur; 250 g ai/ha, scale 0 to 100 (0 no effect, 100 complete control), visual, 12 to 14 days, preemergence",30
same,Cocklebur plant response rating,"cocklebur; Postemergence, scale 0 to 100",100
same,"Plant response rating, Cocklebur",cocklebur; [4],100
same,Cocklebur plant response rating,cocklebur; [5],50
same,"Plant response rating, Cocklebur",cocklebur; [6],80
same,"Plant response rating, Cocklebur",cocklebur; [7],70
same,"Plant response rating, Soybean",soybean; [3],0
same,Soybean plant response rating,"soybean; Postemergence, scale 0 to 100",60
same,"Plant response rating, Soybean",soybean; [4],60
same,Soybean plant response rating,soybean; [5],10
same,"Plant response rating, Soybean",soybean; [6],60
same,"Plant response rating, Soybean",soybean; [7],50
CCC(=NO)c1cccc(NC(=O)c2cc(C(C)(C)C)nn2C)c1 [Compound 118],"Plant response rating, Surinam Grass",Surinam grass; [13],20
same,"Plant response rating, Surinam Grass",Surinam grass; [3],20
same,"Plant response rating, Pigweed",pigweed; [13],20
same,"Plant response rating (0 = no effect, 100 = complete control), Pigweed","pigweed; 62 g ai/ha, preemergence",70
same,"Plant response rating, Pigweed",pigweed; [3],90
same,"Plant response rating, Corn",corn; [8],10
same,"Plant response rating, Corn",corn; [9],40
same,Corn plant response rating,corn; [10],20
same,"Plant response rating, Corn",corn; [11],0
same,"Plant response rating, Nightshade","eastern black nightshade; 31 g ai/ha, scale 0 to 100",60
same,"Plant response rating (0 = no effect, 100 = complete control), Nightshade",eastern black nightshade,100
same,"Plant response rating, Nightshade",eastern black nightshade; [12],100
same,"Plant response rating, Velvetleaf",velvetleaf [1]; [13],0
same,"Plant response rating, Velvetleaf",velvetleaf [1]; [3],40
same,"Plant response rating, Crabgrass, Large",large crabgrass; [8],100
same,"Plant response rating, Crabgrass, Large",large crabgrass; [9],30
same,"Crabgrass, Large plant response rating",large crabgrass; [10],20
same,"Plant response rating, Crabgrass, Large",large crabgrass; [11],90
same,"Plant response rating, Cocklebur",cocklebur; [13],0
same,"Plant response rating (0 = no effect, 100 = complete control), Cocklebur","cocklebur; 62 g ai/ha, preemergence",20
same,"Plant response rating, Cocklebur",cocklebur; [3],20
same,"Plant response rating, Soybean",soybean; [13],0
same,"Plant response rating (0 = no effect, 100 = complete control), Soybean","soybean; 62 g ai/ha, preemergence",0
same,"Plant response rating, Soybean",soybean; [3],10
